What was measured:
[1] = test system: pSLP76(S376) level in Jurkat cell line; assay: Cellular pSLP76(S376) HTRF Assay; format: cell-based; settings: Homo sapiens, Jurkat, Jurkat cells, 2 h compound treatment, stimulated with 0.05 μg/mL anti-human CD3 (OKT3) for 30 min
[2] = molecular target: HPK1 kinase (aal-346. Life Technologies) (Homo sapiens (Human), UniProt Q92918); assay: HPK Kinase Activity Assay at 1 mM ATP (TR-FRET); format: biochemical; settings: HPK1 kinase 40 nM, 0.5 μM STK1 substrate, read-out: Enzymatic activity IC50
Chain of HPK1 kinase (aal-346. Life Technologies) (Q92918 1-346): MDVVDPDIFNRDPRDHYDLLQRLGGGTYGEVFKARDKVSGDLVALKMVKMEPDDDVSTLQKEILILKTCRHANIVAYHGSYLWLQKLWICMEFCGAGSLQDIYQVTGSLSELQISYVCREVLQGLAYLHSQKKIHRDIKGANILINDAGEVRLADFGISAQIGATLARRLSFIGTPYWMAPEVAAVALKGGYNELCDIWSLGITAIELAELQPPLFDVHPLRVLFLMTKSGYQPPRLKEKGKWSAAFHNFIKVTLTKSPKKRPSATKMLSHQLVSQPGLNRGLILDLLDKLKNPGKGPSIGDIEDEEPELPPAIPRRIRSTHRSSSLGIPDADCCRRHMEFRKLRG

Row | SMILES | IC50 [1] [nM] | IC50 [2] [nM]
1 | CCNS(=O)(=O)c1cc(C)cc(-c2cnc(N)c(Oc3cnn(C4CCN(C)CC4)c3)n2)c1 [Example A15, 3-(5-amino-6-((1-(1-methylpiperidin-4-yl)-1H-pyrazol-4-yl)oxy)pyrazin-2-yl)-N-ethyl-5-methylbenzenesulfonamide] | 157 | 83
2 | Cc1cc(-c2cnc(N)c(Oc3cnn(C4CCN(C)CC4)c3)n2)cc(C)c1C1COCC(=O)N1 (centres unmarked) [Example A35, 5-(4-(5-amino-6-((1-(1-methylpiperidin-4-yl)-1H-pyrazol-4-yl)oxy)pyrazin-2-yl)-2,6-dimethylphenyl)morpholin-3-one] | 123 | 47
3 | CNC(=O)c1c(C)cc(-c2cnc(N)c(Oc3cnn(C4CCN(C)CC4)c3)n2)cc1C [Example A3, 4-(5-amino-6-(1-(1-methylpiperidin-4-yl)-1H-pyrazol-4-yloxy)pyrazin-2-yl)-N,2,6-trimethylbenzamide] | 150 | 110
4 | CNS(=O)(=O)c1cc(C)cc(-c2cnc(N)c(Oc3cnn([C@@H]4C[C@H]5CC[C@@H](C4)N5C)c3)n2)c1 [Example A14, 3-(5-amino-6-((1-((1R,3s,5S)-8-methyl-8-azabicyclo[3.2.1]octan-3-yl)-1H-pyrazol-4-yl)oxy)pyrazin-2-yl)-N,5-dimethylbenzenesulfonamide] | 59 | 45
5 | CNS(=O)(=O)c1cc(C)cc(-c2cnc(N)c(Oc3cnn(C4CCN(CC5COC5)CC4)c3)n2)c1 [Example A28, 3-(5-amino-6-((1-(1-(oxetan-3-ylmethyl)piperidin-4-yl)-1H-pyrazol-4-yl)oxy)pyrazin-2-yl)-N, 5-dimethylbenzenesulfonamide] | 97 | 50
6 | Cc1cc(-c2cnc(N)c(Oc3cnn(C4CCN(C)CC4)c3)n2)cc(C2(O)CCOC2)c1N1CC2(COC2)C1 (centres unmarked) [Example A83, 3-(5-(5-amino-6-((1-(1-methylpiperidin-4-yl)-1H-pyrazol-4-yl)oxy)pyrazin-2-yl)-3-methyl-2-(2-oxa-6-azaspiro[3.3]heptan-6-yl)phenyl)tetrahydrofuran-3-ol] | 105 | 17
7 | Cc1cc(-c2cnc(N)c(Oc3cnn(C4CCN(C)CC4)c3)n2)cc(C(=O)NCCN(C)C)c1C [Example A17, 5-(5-amino-6-((1-(1-methylpiperidin-4-yl)-1H-pyrazol-4-yl)oxy)pyrazin-2-yl)-N-(2-(dimethylamino)ethyl)-2,3-dimethylbenzamide] | 194 | 59
8 | Cc1cc(-c2cnc(N)c(Oc3cnn(C4CCN(C)CC4)c3)n2)cc(C)c1CNCC(F)(F)F [Example A48, 5-(3,5-dimethyl-4-(((2,2,2-trifluoroethyl)amino)methyl)phenyl)-3-((1-(1-methylpiperidin-4-yl)-1H-pyrazol-4-yl)oxy)pyrazin-2-amine] | 183 | 50
9 | CNS(=O)(=O)c1cc(OC)cc(-c2cnc(N)c(Oc3cnn(C4CCN(C)CC4)c3)n2)c1 [Example A7, 3-(5-amino-6-((1-(1-methylpiperidin-4-yl)-1H-pyrazol-4-yl)oxy)pyrazin-2-yl)-5-methoxy-N-methylbenzenesulfonamide] | 62 | 20
10 | Cc1cc(-c2cnc(N)c(Oc3cnn(C4CCN(C)CC4)c3)n2)cc(C)c1C(=O)NCCN1CCCC1 [Example A4, 4-(5-amino-6-((1-(1-methylpiperidin-4-yl)-1H-pyrazol-4-yl)oxy)pyrazin-2-yl)-2,6-dimethyl-N-(2-(pyrrolidin-1-yl)ethyl)benzamide] | 91 | 25
11 | Cc1cc(-c2cnc(N)c(Oc3cnn(C4CCN(C)CC4)c3)n2)cc(C)c1C1COC(=O)N1 (centres unmarked) [Example A29, 4-(4-(5-amino-6-((1-(1-methylpiperidin-4-yl)-1H-pyrazol-4-yl)oxy)pyrazin-2-yl)-2,6-dimethylphenyl)oxazolidin-2-one] | 97 | 21
12 | Cc1cc(-c2cnc(N)c(Oc3cnn(C4CCN(C)CC4)c3)n2)cc(C)c1CNC(=O)NC(C)(C)C [Example A53, 1-(4-(5-amino-6-((1-(1-methylpiperidin-4-yl)-1H-pyrazol-4-yl)oxy)pyrazin-2-yl)-2,6-dimethylbenzyl)-3-(tert-butyl)urea] | 63 | 16
13 | COCc1cc(-c2cnc(N)c(Oc3cnn(C4CCN(C)CC4)c3)n2)cc(C2(O)COC2)c1 [Example A82, 3-(3-(5-amino-6-((1-(1-methylpiperidin-4-yl)-1H-pyrazol-4-yl)oxy)pyrazin-2-yl)-5-(methoxymethyl)phenyl)oxetan-3-ol] | 125 | 37
14 | Cc1cc(-c2cnc(N)c(Oc3cnn(C4CCN(C)CC4)c3)n2)cc(C)c1N1CC2(COC2)C1 [Example A77, 5-(3,5-dimethyl-4-(2-oxa-6-azaspiro[3.3]heptan-6-yl)phenyl)-3-((1-(1-methylpiperidin-4-yl)-1H-pyrazol-4-yl)oxy)pyrazin-2-amine] | 91 | 38
15 | Cc1cc(-c2cnc(N)c(Oc3cnn(C4CCN(C)CC4)c3)n2)cc(C)c1CNS(=O)(=O)c1ccccc1 [Example A38, N-(4-(5-amino-6-((1-(1-methylpiperidin-4-yl)-1H-pyrazol-4-yl)oxy)pyrazin-2-yl)-2,6-dimethylbenzyl)benzenesulfonamide] | 125 | 37
16 | CNc1cc(-c2cnc(N)c(Oc3cnn(C4CCN(C)CC4)c3)n2)cc(S(=O)(=O)NC)c1 [Example A22, 3-(5-amino-6-((1-(1-methylpiperidin-4-yl)-1H-pyrazol-4-yl)oxy)pyrazin-2-yl)-N-methyl-5-(methylamino)benzenesulfonamide] | 38 | 14
17 | Cc1cc(-c2cnc(N)c(Oc3cnn(C4CCN(C)CC4)c3)n2)cc(C)c1C(=O)NCCN(C)C [Example A1, 4-(5-amino-6-((1-(1-methylpiperidin-4-yl)-1H-pyrazol-4-yl)oxy)pyrazin-2-yl)-N-(2-(dimethylamino)ethyl)-2,6-dimethylbenzamide] | 93 | 47
18 | Cc1cc(-c2cnc(N)c(Oc3cnn(C4CCN(C)CC4)c3)n2)cc(C2(O)CCOC2)c1N1CCOCC1 (centres unmarked) [Example A96, 3-(5-(5-amino-6-((1-(1-methylpiperidin-4-yl)-1H-pyrazol-4-yl)oxy)pyrazin-2-yl)-3-methyl-2-morpholinophenyl)tetrahydrofuran-3-ol] | 117 | 36
19 | Cc1cc(-c2cnc(N)c(Oc3cnn(C4CCN(C)CC4)c3)n2)cc([C@@H]2CCC(=O)N2)c1 [Example A61B, (S)-5-(3-(5-amino-6-((1-(1-methylpiperidin-4-yl)-1H-pyrazol-4-yl)oxy)pyrazin-2-yl)-5-methylphenyl)pyrrolidin-2-one] | 44 | 10

The remaining lines, values ahead:

Row | IC50 [1] [nM] | IC50 [2] [nM] | SMILES
20 | 62 | 5.8 | COC[C@@H]1COCCN1c1cc(-c2cnc(N)c(Oc3cnn(C4CCN(C)CC4)c3)n2)cc(C2(O)COC2)c1 [Example A76, (R)-3-(3-(5-amino-6-((1-(1-methylpiperidin-4-yl)-1H-pyrazol-4-yl)oxy)pyrazin-2-yl)-5-(3-(methoxymethyl)morpholino)phenyl)oxetan-3-ol]
21 | 82 | 19 | CNS(=O)(=O)c1cc(-c2cnc(N)c(Oc3cnn(C4CCN(C)CC4)c3)n2)cc(N2CCOCC2)c1 [Example A42, 3-(5-amino-6-((1-(1-methylpiperidin-4-yl)-1H-pyrazol-4-yl)oxy)pyrazin-2-yl)-N-methyl-5-morpholinobenzenesulfonamide]
22 | 83 | 58 | Cc1cc(-c2cnc(N)c(Oc3cnn(C4CCN(C)CC4)c3)n2)cc(C2(O)COC2)c1Cl [Example A84, 3-(5-(5-amino-6-((1-(1-methylpiperidin-4-yl)-1H-pyrazol-4-yl)oxy)pyrazin-2-yl)-2-chloro-3-methylphenyl)oxetan-3-ol]
23 | 229 | 11 | C[C@@H]1COCCN1c1cc(-c2cnc(N)c(Oc3cnn(C4CCN(C)CC4)c3)n2)cc(C(C)(C)O)n1 [Example B3, (R)-2-(4-(5-amino-6-((1-(1-methylpiperidin-4-yl)-1H-pyrazol-4-yl)oxy)pyrazin-2-yl)-6-(3-methylmorpholino)pyridin-2-yl)propan-2-ol]
24 | 59 | 5.6 | CN1CCC(n2cc(Oc3nc(-c4cc(N5CCOCC5)cc(C5(O)COC5)c4)cnc3N)cn2)CC1 [Example A72, 3-(3-(5-amino-6-((1-(1-methylpiperidin-4-yl)-1H-pyrazol-4-yl)oxy)pyrazin-2-yl)-5-morpholinophenyl)oxetan-3-ol]
25 | 102 | 31 | C[C@@H]1COCCN1c1cc(-c2cnc(N)c(Oc3cnn(C4CCN(C)CC4)c3)n2)cc(C2(O)COC2)n1 [Example B4, (R)-3-(4-(5-amino-6-(1-(1-methylpiperidin-4-yl)-1H-pyrazol-4-yloxy)pyrazin-2-yl)-6-(3-methylmorpholino)pyridin-2-yl)oxetan-3-ol]
26 | 84 | 57 | Cc1cc(-c2cnc(N)c(Oc3cnn(C4CCN(C)CC4)c3)n2)cc(C2(O)CCOC2)c1 (centres unmarked) [Example A69, 3-(3-(5-amino-6-((1-(1-methylpiperidin-4-yl)-1H-pyrazol-4-yl)oxy)pyrazin-2-yl)-5-methylphenyl)tetrahydrofuran-3-ol]
27 | 194 | 29 | C[C@@H]1COCCN1c1cc(-c2cnc(N)c(Oc3cnn(C4CCN(C)CC4)c3)n2)cc([C@@]2(O)CCOC2)c1 [Example A80A, (S)-3-(3-(5-amino-6-((1-(1-methylpiperidin-4-yl)-1H-pyrazol-4-yl)oxy)pyrazin-2-yl)-5-((R)-3-methylmorpholino)phenyl)tetrahydrofuran-3-ol]
28 | 82 | 11 | CNS(=O)(=O)c1cc(-c2cnc(N)c(Oc3cnn(C4CCN(C)CC4)c3)n2)cc(N2CCOC[C@H]2C)c1 [Example A49, (R)-3-(5-amino-6-((1-(1-methylpiperidin-4-yl)-1H-pyrazol-4-yl)oxy)pyrazin-2-yl)-N-methyl-5-(3-methylmorpholino)benzenesulfonamide]

— patent US20240317714A1, “3-[(1H-PYRAZOL-R-YL)OXY]PYRAZIN-2-AMINE COMPOUNDS AS HPK1 INHIBITOR AND USE THEREOF” (BeiGene, Ltd., priority 2020, published 2024)
